Results on 17 molecules are retold here after patent US12662451B2, “Chemical compounds and uses thereof” (GLAXOSMITHKLINE INTELLECTUAL PROPERTY (NO.4) LIMITED, priority 2023, dated 2026).

Experiment [1] addresses T1, recombinant full-length WRN protein (1-1432) (Homo sapiens, UniProt Q14191).
T1 construct: recombinant full-length WRN protein (1-1432)
The experiment in a line: WRN unwinding activity, fluorogenic 384-well assay (Example A). Type of experiment: biochemical. To be noted: WRN unwinding activity, 4 hr; Table 2; read-out: 4 hr UNW pIC50 (converted). The gist of the method:
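Read-out is end-point unwinding of a fluorophore/quencher duplex (ex 525, em 598 nm) after 60 min with 200 μM ATP and 12 nM DNA (2× stocks), EDTA stop. Compound first sat 4 h with 200 pM WRN (2× stock) in pH 8.0 Tris buffer; four-parameter fit gives pIC50.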

Experiment [2] concerns SW48 human colorectal cancer cells (MSI-H cancer cells). The experiment in a line: SW48 cell viability, CellTiter-Glo, 120 hours (Example B). To be noted: Homo sapiens, SW48, 120 h, read-out: SW48 pCC50, SW48 cell viability, 120 hours incubation (converted); Table 2. On the technique in general: In ATP-based viability assays light output follows the ATP content of the culture.
Procedure: SW48 human colorectal cancer cells (MSI-H cancer cells) were obtained from the American Type Culture Collection and maintained in growth medium composed of RPMI-1640 supplemented with 10% fetal bovine serum. Cells were maintained in a humidified 5% CO2 incubator at 37° C. Cell dissociation was conducted using TrypLE Select to detach cells from culture flasks. Following dissociation, cells were centrifuged briefly and resuspended in assay medium RPMI-1640+10% fetal bovine serum. Black 384-well assay plates were prepared from source plates of DMSO and compounds dissolved in DMSO prior to cell dispensation. These source plates were prepared in eleven point, 3-fold serial dilutions from 10 mM stocks stored at 4° C. Compounds and DMSO controls were dispensed into assay plates at 150 nanoliters per well from source plates using Labcyte Echo 555 or Echo 655T dispensers with Column 6 and Column 18 containing DMSO only. Cells were then seeded into prepared assay plates in 50 microliters assay medium at 250 cells per well into Columns 1 thru 17 and Columns 19-24. Assay medium without cells was added to column 18 to serve as a surrogate for 100% cell cytotoxicity. Following incubation for 120 hours in a humidified 5% CO2 incubator at 37° C., cellular ATP concentration of each well was measured and used as a surrogate of cell viability. This was performed by adding 50 microliters of CellTiter-Glo reagent to each well followed by a 10-minute incubation at room temperature. Luminescence was measured on a Synergy Neo or Synergy Neo2 multimode plate reader. Compound cytotoxic response (% C) was normalized to the robust means of column 6 (Control 1, 0% Cytotoxicity) and column 18 (Control 2, 100% Cytotoxicity) and normalized % cytotoxicity (% C) calculated. % C=100−100*((Compound−Control 2)/(Control1−Control2)). These normalized data were then used to determine a 50% cytotoxic response (CC50) using 4-parameter logistic curve model 201 in Activity Base XE:
[formula] • where A=minimum asymptote (% cytotoxicity), B=maximum asymptote (% cytotoxicity), C=Log CC50 (pCC50), D=Hill slope, and x=[inhibitor], (M).

T1 sequence (Q14191 whole entry): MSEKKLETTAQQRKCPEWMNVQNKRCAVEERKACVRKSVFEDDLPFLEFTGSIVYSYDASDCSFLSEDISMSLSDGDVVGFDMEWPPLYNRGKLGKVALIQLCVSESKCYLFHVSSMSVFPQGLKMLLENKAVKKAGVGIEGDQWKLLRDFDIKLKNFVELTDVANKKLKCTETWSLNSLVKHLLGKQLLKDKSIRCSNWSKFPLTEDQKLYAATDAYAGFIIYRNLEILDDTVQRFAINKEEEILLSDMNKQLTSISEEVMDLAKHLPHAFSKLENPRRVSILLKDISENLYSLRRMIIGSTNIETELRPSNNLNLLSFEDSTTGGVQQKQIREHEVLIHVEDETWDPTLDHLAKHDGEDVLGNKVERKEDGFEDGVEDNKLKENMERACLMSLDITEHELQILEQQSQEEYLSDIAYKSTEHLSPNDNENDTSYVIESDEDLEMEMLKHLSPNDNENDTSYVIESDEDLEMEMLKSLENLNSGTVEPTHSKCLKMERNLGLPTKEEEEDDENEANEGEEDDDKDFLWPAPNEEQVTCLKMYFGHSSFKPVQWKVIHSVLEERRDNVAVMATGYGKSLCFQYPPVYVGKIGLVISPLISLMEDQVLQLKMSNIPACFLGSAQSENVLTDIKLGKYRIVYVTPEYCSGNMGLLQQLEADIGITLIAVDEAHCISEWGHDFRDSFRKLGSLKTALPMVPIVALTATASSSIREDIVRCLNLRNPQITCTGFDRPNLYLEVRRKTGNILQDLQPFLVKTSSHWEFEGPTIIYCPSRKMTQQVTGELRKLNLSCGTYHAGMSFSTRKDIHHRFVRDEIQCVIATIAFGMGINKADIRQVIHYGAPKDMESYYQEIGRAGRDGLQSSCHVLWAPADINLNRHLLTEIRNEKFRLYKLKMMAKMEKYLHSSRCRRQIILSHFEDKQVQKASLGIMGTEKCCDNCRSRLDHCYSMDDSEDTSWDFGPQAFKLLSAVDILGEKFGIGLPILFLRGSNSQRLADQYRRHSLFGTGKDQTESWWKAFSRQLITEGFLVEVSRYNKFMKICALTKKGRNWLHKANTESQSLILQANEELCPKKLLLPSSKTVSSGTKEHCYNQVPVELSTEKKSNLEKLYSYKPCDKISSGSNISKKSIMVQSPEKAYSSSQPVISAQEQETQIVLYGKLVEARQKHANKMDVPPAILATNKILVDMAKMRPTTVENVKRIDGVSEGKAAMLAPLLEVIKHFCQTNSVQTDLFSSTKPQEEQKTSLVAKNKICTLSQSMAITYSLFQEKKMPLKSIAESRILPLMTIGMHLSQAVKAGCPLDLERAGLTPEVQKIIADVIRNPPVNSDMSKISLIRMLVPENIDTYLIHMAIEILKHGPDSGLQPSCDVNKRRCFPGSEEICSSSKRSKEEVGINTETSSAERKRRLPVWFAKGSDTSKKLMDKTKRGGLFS

For the molecule `Cc1nc2cc(S(=O)(=O)N(C)c3ccc([C@@H]4C[C@@H](N5CC[C@H](F)C5)C[C@H](C(=O)Nc5ccc(C(F)(F)F)cc5F)[C@H]4C(=O)O)cc3)ccc2n1C` (stereo in doubt) [Example 379, rel-(1R*,2R*,4S*,6S*)-2-((2-fluoro-4-(trifluoromethyl)phenyl)carbamoyl)-4-((S)-3-fluoropyrrolidin-1-yl)-6-(4-((N,1,2-trimethyl-1H-benzo[d]imidazole)-5-sulfonamido)phenyl)cyclohexane-1-carboxylic acid], the IC50 in experiment [1] was 501 nM. Further, the CC50 in experiment [2] was 20000 nM.

For `Cc1nc2cc(S(=O)(=O)N(C)c3ccc([C@@H]4C[C@@H](N5CC[C@@H](F)C5)C[C@H](C(=O)Nc5ccc(C(F)(F)F)cc5F)[C@H]4C(=O)O)cc3)ccc2n1C` (stereo in doubt) [Example 384, rel-(1R*,2R*,4S*,6S*)-2-((2-fluoro-4-(trifluoromethyl)phenyl)carbamoyl)-4-((R)-3-fluoropyrrolidin-1-yl)-6-(4-((N,1,2-trimethyl-1H-benzo[d]imidazole)-5-sulfonamido)phenyl)cyclohexane-1-carboxylic acid], the IC50 in experiment [1] is 398 nM. Also, the CC50 in experiment [2] was 25100 nM.

Turning to `Cc1nc2cc(S(=O)(=O)N(C)c3ccc([C@@H]4C[C@@]5(CCCO5)C[C@H](C(=O)Nc5ccc(C(F)(F)F)cc5F)[C@H]4C(=O)O)cc3)ccc2n1C` (stereo in doubt) [Example 387, rel-(5R,7R,8R,9S)-7-((2-fluoro-4-(trifluoromethyl)phenyl)carbamoyl)-9-(4-((N,1,2-trimethyl-1H-benzo[d]imidazole)-5-sulfonamido)phenyl)-1-oxaspiro[4.5]decane-8-carboxylic acid], the IC50 in experiment [1] was 63.1 nM. Also, the CC50 in experiment [2] was 10000 nM.

Regarding `O=C(O)[C@@H]1[C@@H](c2ccc(-c3cccc4[nH]ncc34)cc2)CCC[C@H]1C(=O)Nc1ccc(C(F)(F)F)cc1F` [Example 1, (1R,2S,6R)-2-(4-(1H-indazol-4-yl)phenyl)-6-((2-fluoro-4-(trifluoromethyl)phenyl)carbamoyl)cyclohexane-1-carboxylic acid], in experiment [1], the IC50 is 1000 nM. Moreover, the CC50 in experiment [2] was 10000 nM.

On to `O=C(O)[C@@H]1[C@@H](c2ccc(-c3cccc4cnccc34)cc2)CCC[C@H]1C(=O)Nc1ccc(C(F)(F)F)cc1F` [Example 2, (1R,2R,6S)-2-((2-fluoro-4-(trifluoromethyl)phenyl)carbamoyl)-6-(4-(isoquinolin-5-yl)phenyl)cyclohexane-1-carboxylic acid], for which the IC50 in experiment [1] is 1260 nM. Also, the CC50 in experiment [2] is 12600 nM.

Consider `Cn1nccc1-c1ccc([C@H]2CCC[C@@H](C(=O)Nc3ccc(C(F)(F)F)cc3F)[C@@H]2C(=O)O)cc1` [Example 3, (1R,2R,6S)-2-((2-fluoro-4-(trifluoromethyl)phenyl)carbamoyl)-6-(4-(1-methyl-1H-pyrazol-5-yl)phenyl)cyclohexane-1-carboxylic acid], for which the IC50 in experiment [1] was 3.98 nM. Further, the CC50 in experiment [2] was 10000 nM.

On to `O=C(O)[C@@H]1[C@@H](c2ccc(-c3cncnc3)cc2)CCC[C@H]1C(=O)Nc1ccc(C(F)(F)F)cc1F` [Example 6, (1R,2R,6S)-2-((2-fluoro-4-(trifluoromethyl)phenyl)carbamoyl)-6-(4-(pyrimidin-5-yl)phenyl)cyclohexane-1-carboxylic acid], for which, in experiment [1], the IC50 was 6.31 nM. Also, the CC50 in experiment [2] was 10000 nM.

Regarding `O=C(O)[C@@H]1[C@@H](c2ccc(-c3cccnc3)cc2)CCC[C@H]1C(=O)Nc1ccc(C(F)(F)F)cc1F` [Example 8, (1R,2R,6S)-2-((2-fluoro-4-(trifluoromethyl)phenyl)carbamoyl)-6-(4-(pyridin-3-yl)phenyl)cyclohexane-1-carboxylic acid], in experiment [1], the IC50 is 3.98 nM. Further, the CC50 in experiment [2] was 7940 nM.

With `O=C(O)[C@@H]1[C@@H](c2ccc(-c3ccco3)cc2)CCC[C@H]1C(=O)Nc1ccc(C(F)(F)F)cc1F` [Example 9, (1R,2R,6S)-2-((2-fluoro-4-(trifluoromethyl)phenyl)carbamoyl)-6-(4-(furan-2-yl)phenyl)cyclohexane-1-carboxylic acid], in experiment [1], the IC50 was 794 nM. Besides, in experiment [2], the CC50 was 25100 nM.

In the case of `O=C(O)[C@@H]1[C@@H](c2ccc(-c3ccoc3)cc2)CCC[C@H]1C(=O)Nc1ccc(C(F)(F)F)cc1F` [Example 10, (1R,2R,6S)-2-((2-fluoro-4-(trifluoromethyl)phenyl)carbamoyl)-6-(4-(furan-3-yl)phenyl) cyclohexane-1-carboxylic acid], the IC50 in experiment [1] was 100 nM. Also, in experiment [2], the CC50 was 12600 nM.

On to `O=C(O)[C@@H]1[C@@H](c2ccc(-c3ccccc3)cc2)CCC[C@H]1C(=O)Nc1ccc(C(F)(F)F)cc1F` [Example 11, (1R,2S,6R)-2-([1,1′-biphenyl]-4-yl)-6-((2-fluoro-4-(trifluoromethyl)phenyl)carbamoyl)cyclohexane-1-carboxylic acid], for which the IC50 in experiment [1] is 158 nM. In addition, the CC50 in experiment [2] is 15800 nM.

For `O=C(O)[C@@H]1[C@@H](c2ccc(-c3cccc4c3COC4)cc2)CCC[C@H]1C(=O)Nc1ccc(C(F)(F)F)cc1F` [Example 15, (1R,2S,6R)-2-(4-(1,3-dihydroisobenzofuran-4-yl)phenyl)-6-((2-fluoro-4-(trifluoromethyl)phenyl)carbamoyl)cyclohexane-1-carboxylic acid], the IC50 in experiment [1] was 158 nM. Moreover, the CC50 in experiment [2] was 20000 nM.

Regarding `O=C(O)[C@@H]1[C@@H](c2ccc(-c3ccnnc3)cc2)CCC[C@H]1C(=O)Nc1ccc(C(F)(F)F)cc1F` [Example 18, (1R,2R,6S)-2-((2-fluoro-4-(trifluoromethyl)phenyl)carbamoyl)-6-(4-(pyridazin-4-yl)phenyl)cyclohexane-1-carboxylic acid], in experiment [1], the IC50 was 5.01 nM. Besides, in experiment [2], the CC50 is 12600 nM.

`Nc1ccccc1-c1ccc([C@H]2CCC[C@@H](C(=O)Nc3ccc(C(F)(F)F)cc3F)[C@@H]2C(=O)O)cc1` [Example 24, (1R,2S,6R)-2-(2′-amino-[1,1′-biphenyl]-4-yl)-6-((2-fluoro-4-(trifluoromethyl)phenyl)carbamoyl)cyclohexane-1-carboxylic acid]: the IC50 in experiment [1] was 79.4 nM. In experiment [2], the CC50 is 15800 nM.

Consider `O=C(O)[C@@H]1[C@@H](c2ccc(-c3ccc(F)nc3)cc2)CCC[C@H]1C(=O)Nc1ccc(C(F)(F)F)cc1F` [Example 25, (1R,2R,6S)-2-((2-fluoro-4-(trifluoromethyl)phenyl)carbamoyl)-6-(4-(6-fluoropyridin-3-yl)phenyl)cyclohexane-1-carboxylic acid], for which the IC50 in experiment [1] is 1.58 nM. For the same molecule, the CC50 in experiment [2] was 5010 nM.

Take `O=C(O)[C@@H]1[C@@H](c2ccc(-c3cncc(F)c3)cc2)CCC[C@H]1C(=O)Nc1ccc(C(F)(F)F)cc1F` [Example 27, (1R,2R,6S)-2-((2-fluoro-4-(trifluoromethyl)phenyl)carbamoyl)-6-(4-(5-fluoropyridin-3-yl)phenyl)cyclohexane-1-carboxylic acid]: in experiment [1], the IC50 is 12.6 nM. In experiment [2], the CC50 is 3980 nM.

In the case of `O=C(O)[C@@H]1[C@@H](c2ccc(-c3cccs3)cc2)CCC[C@H]1C(=O)Nc1ccc(C(F)(F)F)cc1F` [Example 31, (1R,2R,6S)-2-((2-fluoro-4-(trifluoromethyl)phenyl)carbamoyl)-6-(4-(thiophen-2-yl)phenyl)cyclohexane-1-carboxylic acid], the IC50 in experiment [1] is 100 nM. The CC50 in experiment [2] is 10000 nM.
